This note sets out measurements from US6734139B1, “N-aryl-uracile-based herbicides” (priority 1999, dated 2004).

What all share (type): in vivo
The subject of one series is maize. In words: Pre-emergence test in maize (crop plant compatibility). The protocol:
(§1) Solvent: 2 to 3 parts by weight of acetone or N,N-dimethyl-formamide
(§2) Emulsifier: 1 part by weight of alkylaryl polyglycol ether
(§3) To produce a suitable preparation of active compound, 1 part by weight of active compound is mixed with the stated amount of solvent, the stated amount of emulsifier is added and the concentrate is diluted with water to the desired concentration. Formulated products are dissolved in water and then diluted with water to the desired concentration.
(§4) The solutions of the other mixing components (active compounds or safeners) are prepared analogously. The separately prepared solutions of the various mixing components are then combined and, if appropriate, additional substances (formulation auxiliaries, additives, etc.) are added and, if appropriate, water is added to prepare the desired dilution.
(§5) Seeds of the test plants are sown in standard soil. After 24 hours, the soil is sprayed with the preparation of active compound such that the particular amount of active compound desired in each case is applied per unit area. The concentration of active compound in the spray liquor is chosen such that the particular amount of active compound desired in each case is applied in 500 litres of water per hectare. The containers with the test plants are kept in a greenhouse at controlled temperature and controlled illumination until evaluation.
(§6) 0%=no effect/no damage (like untreated control)

In the next series the test system is Datura. Nature of the series: Pre-emergence test (herbicidal action, Colby): Datura.
The test system of another series is Alopecurus. Nature of the series: Pre-emergence test (herbicidal action, Colby): Alopecurus. As to conditions: 60 g of a.i./ha.
The test system of the next series is Digitaria. Nature of the series: Pre-emergence test (herbicidal action, Colby): Digitaria. The following applies: 30 g of a.i./ha.
In a further series the test system is weeds. Nature of the series: Pre-emergence test (herbicidal action against weeds, Colby). The following applies: Table A26.
Excerpt: (§7) The expected action for a given combination of two herbicides can be calculated as follows (cf. COLBY, S. R.: “Calculating synergistic and antagonistic responses of herbicide combinations”, Weeds 15, Pages 20-22, 1967):
(§8) If the actual damage exceeds the calculated value, the combination has a superadditive effect, that is to say a synergistic effect.
The theoretically expected activity for a given combination of three herbicides can likewise be found in the literature mentioned above.
as §1, §2, §3, §4, §5
(§9) After three weeks, the degree of damage to the plants is rated in % damage in comparison to the development of the untreated control. The figures denote
as §6

Another series concerns Abutilon. Nature of the series: Pre-emergence test (herbicidal action, Colby): Abutilon. The following applies: read-out: Abutilon.
The next series concerns Polygonum. Nature of the series: Pre-emergence test (herbicidal action, Colby): Polygonum. The following applies: 30 g of a.i./ha.
Another series deals with Winter wheat. In words: Post-emergence test in barley and wheat: winter wheat. Here is the method:
as §3, §4, §9, §6

Another series has as its system Durum wheat. In words: Post-emergence test in barley and wheat: durum wheat. Here is the method:
as §3, §4, §9, §6

The next series deals with Summer wheat. In words: Post-emergence test in barley and wheat: summer wheat. The following applies: for damage, Summer wheat (5 days) / damage, Summer wheat (21 days) / damage, Summer wheat (22 days): 0.1% Renex-36. The protocol: as §3, §4, §6
The subject of another series is Winter barley. In words: Post-emergence test in barley and wheat: winter barley. As to conditions: for damage, Winter barley (21 days): 0.1% Renex-36. The protocol: as §3, §4, §6
The subject of the next series is Ipomoea. In words: Pre-emergence test (herbicidal action, Colby): Ipomoea. The following applies: 60 g of a.i./ha.
For a further series, the system named is Cyperus. Nature of the series: Pre-emergence test (herbicidal action, Colby): Cyperus. As to conditions: 30 g of a.i./ha.
The subject of another series is Stellaria. In words: Pre-emergence test (herbicidal action, Colby): Stellaria. As to conditions: 60 g of a.i./ha.
For the next series, the system named is Matricaria. In words: Pre-emergence test (herbicidal action, Colby): Matricaria. The following applies: 30 g of a.i./ha.
A further series concerns Solanum. In words: Post-emergence test (herbicidal action, Colby): Solanum. The following applies: single active compound at 15 g of a.i./ha.
Excerpt: as §7, §8, §3, §4, §9, §6

The subject of the next series is Veronica. Nature of the series: Post-emergence test (herbicidal action, Colby): Veronica. The following applies: single active compound at 8 g of a.i./ha.
Excerpt: as §7, §8, §3, §4, §9, §6

SMILES strings stand for the structures. Values joined by “and” are separate entries in the source; they are usually repeats but may differ in a detail not shown here. Identical values can stand only once. Like-named read-outs stand apart in the source and are kept apart here.

Take `CCS(=O)(=O)N(C(=O)c1cccs1)c1cc(-n2c(=O)cc(C(F)(F)F)n(N)c2=O)c(F)cc1C#N` [I-5, N-[5-(3-amino-2,6-dioxo-4-trifluoromethyl-3,6-dihydro-1(2H)-pyrimidinyl)-2-cyano-4-fluoro-phenyl]-N-(2-thienyl-carbonyl)-1-ethanesulphonamide]: in the series with maize (Table A32, 60 g of a.i./ha), the Maize (7 days) is 20%, the Maize (12 days) was 30% and the Maize (21 days) was 18%. In addition, in the series on maize (Table A32, 90 g of a.i./ha), the Maize (7 days) came out at 60%, the Maize (12 days) amounted to 70% and the Maize (21 days) stood at 64%.
The compound `CS(=O)(=O)c1cc(C(F)(F)F)ccc1C(=O)c1cnoc1C1CC1` [isoxaflutole, (5-cyclopropyl-isoxazol-4-yl)-(2-methylsulphonyl-4-trifluoromethyl-phenyl)-methanone] gave a Datura with Datura (60 g of a.i./ha) of 90%. In addition, the Alopecurus in the series with Alopecurus stood at 40%. The same compound displayed a Digitaria in the series on Digitaria of 90%. In the series with weeds (30 g of a.i./ha), the “Avena (pre-emergence test)” value came to 30, the “Cassia (pre-emergence test)” value is on record as 70, the “Digitaria (pre-emergence test)” value turned out to be 80 and the “Echinochloa (pre-emergence test)” value came to 30. Further, in the series on weeds (30 g of a.i./ha), the “Lolium (pre-emergence test)” value was 30, the “Matricaria (pre-emergence test)” value came out at 20 and the “Setaria (pre-emergence test)” value is 30. For the same compound, in the series with weeds (60 g of a.i./ha), the “Echinochloa (pre-emergence test)” value was found to be 40, the “Lolium (pre-emergence test)” value was found to be 50, the “Matricaria (pre-emergence test)” value was 40 and the “Setaria (pre-emergence test)” value was found to be 30. Moreover, the pest or weed control at 30 g/ha in the series on Abutilon (30 g of a.i./ha) was 80%. The Polygonum in the series on Polygonum is given as 0%.
In the case of `CCS(=O)(=O)Nc1cc(-n2c(=O)cc(C(F)(F)F)n(C)c2=O)c(F)cc1C(N)=S` [I-6, 2-(ethylsulphonylamino)-5-fluoro-4-[3-methyl-2,6-dioxo-4-trifluoromethyl-3,6-dihydro-1(2H)-pyrimidinyl]-benzenecarbothioamide], in the series on Winter wheat (4 g of a.i./ha), the “Winter wheat (5 days)” value stood at 20%, the “Winter wheat (20 days)” value is 10% and the “Winter wheat (22 days)” value is reported as 20%. In the series with Winter wheat (8 g of a.i./ha), the “Winter wheat (5 days)” value is given as 30%, the “Winter wheat (20 days)” value came to 10% and the “Winter wheat (22 days)” value is reported as 20%. Besides, in the series with Winter wheat (15 g of a.i./ha), the “Winter wheat (5 days)” value is listed as 30% and the “Winter wheat (20 days)” value is 20%. Also, the “damage, Winter wheat (21 days)” value in the series with Winter wheat (15 g of a.i./ha, 21 days, 0.1% Renex-36) turned out to be 10%. Besides, in the series with Durum wheat (15 g of a.i./ha), the “Durum wheat (5 days)” value was found to be 20% and the “Durum wheat (21 days)” value is reported as 20%. In addition, the “damage, Durum wheat (5 days)” value in the series with Durum wheat (15 g of a.i./ha, 0.1% Renex-36) is 20%. Besides, in the series on Durum wheat (30 g of a.i./ha), the “Durum wheat (5 days)” value is listed as 30% and the “Durum wheat (21 days)” value worked out at 20%. In the series on Durum wheat (30 g of a.i./ha, 0.1% Renex-36), the “damage, Durum wheat (5 days)” value is reported as 30%. Moreover, the “damage, Durum wheat (22 days)” value in the series on Durum wheat (30 g of a.i./ha, 22 days, 0.1% Renex-36) is listed as 20%. Besides, in the series with Summer wheat (15 g of a.i./ha), the “Summer wheat (5 days)” value is recorded as 40%; the “Summer wheat (21 days)” value is 30%; the “damage, Summer wheat (5 days)” value is 50%; the “damage, Summer wheat (21 days)” value worked out at 20%. The “damage, Summer wheat (22 days)” value with Summer wheat (15 g of a.i./ha) is listed as 20%. Besides, in the series on Summer wheat (30 g of a.i./ha), the “Summer wheat (5 days)” value amounted to 50%; the “Summer wheat (21 days)” value worked out at 40%; the “damage, Summer wheat (5 days)” value was found to be 60%; the “damage, Summer wheat (21 days)” value came out at 30%. The “damage, Summer wheat (22 days)” value with Summer wheat (30 g of a.i./ha) stood at 30%. Further, in the series with Winter barley (4 g of a.i./ha), the “Winter barley (5 days)” value amounted to 30%, the “Winter barley (21 days)” value is 50% and the “Winter barley (22 days)” value was determined as 10%. In the series on Winter barley (8 g of a.i./ha), the “Winter barley (5 days)” value turned out to be 40%, the “Winter barley (21 days)” value worked out at 50% and the “Winter barley (22 days)” value amounted to 20%. Moreover, in the series on Winter barley (15 g of a.i./ha), the “Winter barley (5 days)” value was 60% and 50%; the “damage, Winter barley (21 days)” value is 20%. In addition, in the series with Winter barley (30 g of a.i./ha), the “Winter barley (5 days)” value was 50%; the “Winter barley (21 days)” value is on record as 20%; the “damage, Winter barley (21 days)” value was determined as 30%. Moreover, the Maize (7 days) with maize (Table A30, 60 g of a.i./ha) is 30%. In addition, in the series with maize (Table A30, 90 g of a.i./ha), the Maize (7 days) worked out at 60%, the Maize (12 days) is 60% and the Maize (21 days) was found to be 30%.
As for `CS(=O)(=O)c1ccc(C(=O)C2C(=O)CCCC2=O)c(Cl)c1` [sulcotrione, 2-(2-chloro-4-methylsulphonyl-benzoyl)-cyclohexane-1,3-dione], the Ipomoea with Ipomoea was 80%. Moreover, the Cyperus with Cyperus came to 90%. The Stellaria in the series with Stellaria came to 80%. In the series on Datura (30 g of a.i./ha), this compound returned a Datura of 50%. The same compound registered a Matricaria in the series with Matricaria of 40%. In the series on Abutilon (Abutilon), the pest or weed control at 30 g/ha was 70% and the pest or weed control at 60 g/ha is 80%.
Consider `COCc1cnc(C2=NC(C)(C(C)C)C(=O)N2)c(C(=O)O)c1` (stereo not drawn) [imazamox, 2-(4,5-dihydro-4-methyl-4-isopropyl-5-oxo-1H-imidazol-2-yl)-5-methoxymethyl-pyridine-3-carboxylic acid], for which the “damage, Solanum” value with Solanum amounted to 0%. Further, the “damage, Veronica” value with Veronica came out at 0%.
